5 compounds from patent US9573911B2, “Diphosphate mimetics and uses thereof” (President and Fellows of Harvard College, priority 2011, dated 2017) can be followed below.

In experiment [1] the target is T1, OGT (Homo sapiens, UniProt O15294).
T1 construct: hOGT4.5 construct (spanning residues 313-1031 based on the numbering of the full length human protein); made in house
T1 sequence (O15294 313-1031 isoform O15294-3): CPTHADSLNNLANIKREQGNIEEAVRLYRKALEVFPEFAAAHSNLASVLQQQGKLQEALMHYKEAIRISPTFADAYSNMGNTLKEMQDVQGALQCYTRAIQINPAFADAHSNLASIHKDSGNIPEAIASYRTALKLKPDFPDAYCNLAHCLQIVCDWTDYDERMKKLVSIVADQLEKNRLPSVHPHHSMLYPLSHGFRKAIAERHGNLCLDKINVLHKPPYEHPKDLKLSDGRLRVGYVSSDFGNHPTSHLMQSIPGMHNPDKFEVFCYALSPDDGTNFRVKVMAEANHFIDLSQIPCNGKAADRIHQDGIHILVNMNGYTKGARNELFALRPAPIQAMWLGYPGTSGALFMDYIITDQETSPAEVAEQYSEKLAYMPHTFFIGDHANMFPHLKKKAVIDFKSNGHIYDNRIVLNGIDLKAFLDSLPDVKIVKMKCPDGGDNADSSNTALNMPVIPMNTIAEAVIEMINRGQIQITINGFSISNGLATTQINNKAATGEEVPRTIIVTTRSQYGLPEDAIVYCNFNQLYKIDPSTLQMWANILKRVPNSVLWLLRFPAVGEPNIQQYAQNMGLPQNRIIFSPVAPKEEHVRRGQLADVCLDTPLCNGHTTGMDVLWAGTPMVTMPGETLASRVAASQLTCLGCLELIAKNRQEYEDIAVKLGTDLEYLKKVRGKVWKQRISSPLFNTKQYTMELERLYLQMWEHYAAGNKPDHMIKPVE
In words: IC50 assay, OGT peptide-capture assay. It is filed as biochemical. The settings on record: peptide-capture assay, different concentrations of each compound, read-out: IC50 Values. On the procedure: IC50 Assay of Thiocarbamate to OGT.
Enzyme activity was tested with the peptide-capture assay in the presence of different concentrations of each compound as previously reported (J. Am. Chem. Soc. 2005, 127, 14588-14589).

For experiment [2], the target named is T1, OGT. In words: Time-dependent inactivation of OGT with BZX compounds. The experiment is classed as biochemical. An excerpt: Compound (1) was identified in a high-throughput screen of 65,000 compounds (FIG. 1). See, e.g., Gross et al., J. Am. Chem. Soc. (2005) 127:14588-14589. It contains a dicarbamate moiety that links two aromatic groups. This compound features a conjugated chemical structure and both carbamate carbonyls are potentially reactive. See, e.g., Alexander et al., Chem. Biol. (2005) 12:1179-1187. […] A small panel of related compounds was made from commercially available building blocks in order to identify structural features that might improve potency. Time-dependent inactivation studies were carried out in which OGT was preincubated with a three-fold excess of each compound for 5 min, and the mixture was then diluted 100-fold into buffer containing UDP-^14C-GlcNAc and the well-characterized peptide substrate, CKII. See, e.g., Kreppel et al., J. Biol. Chem. (1999) 274:32015-32022). Enzyme activity was measured using a previously developed peptide capture assay. See, e.g., Gross et al., J. Am. Chem. Soc. (2005) 127:14588-14589.
Each BZX compound (7.5 μM) was preincubated with 5 μM OGT in reaction buffer (125 mM NaCl, 1 mM EDTA, 20 mM potassium phosphate, pH 7.4, and 500 μM tris(hydroxypropyl)phosphine (THP)) at room temperature for different amount of time, then diluted 100-fold, mixed with substrates (6 μM UDP-^14C-GlcNAc and 500 μM CKII peptide (KKKYPGGSTPVSSANMM)) and allowed to react for another 2 h. Enzyme activity was tested with the peptide capture assay as previously reported. See, e.g., Gross et al., J. Am. Chem. Soc. (2005) 127:14588-14589. The final volume of each reaction was 20 μl, and the experiments were conducted in triplicate. The activities of OGT mutants were also tested in triplicate as previously reported. See, e.g., Gross supra.

As for `COc1ccc(OC(=O)n2c(=O)oc3ccc(Cl)cc32)cc1` [Compound 3], in experiment [1], the half-maximal inhibitory concentration (IC50) came out at 18 µM.
`COc1ccc2c(c1)oc(=O)n2C(=O)Oc1ccccc1` [Compound 6]: in experiment [2] (1.5:1 inhibitor:enzyme ratio), the “inactivation time course of OGT” value is on record as “no inhibition”. In experiment [1], the IC50 is ~100 µM.
Take `O=C(Oc1ccccc1)n1c(=O)oc2ccccc21` [Compound 5]: the IC50 in experiment [1] was > 100 µM.
For the compound `COc1ccc(OC(=O)n2c(=O)oc3cc(C(C)=O)ccc32)cc1` [Compound 1], the “OGT enzyme activity after preincubation with compound” value in experiment [2] (three-fold excess of compound, 5 min preincubation, then diluted 100-fold) was “irreversible loss of enzyme activity”.
Take `O=C(Oc1ccccc1)n1c(=O)oc2cc([N+](=O)[O-])ccc21` [Compound 4]: the concentration for half-maximal inhibition (IC50) in experiment [1] was 60 µM.
